Test results from patent publication US20260265271A1, “Cereblon Ligands and Uses Thereof” (REGENTS OF THE UNIVERSITY OF MICHIGAN, priority 2022, published 2026).
Structures can show the parent of a compound that is named as a salt.

Each molecule was assayed against T1, IKZF2 (Homo sapiens, UniProt Q96SW2+Q9UKS7) (assay: IKZF2 HiBiT degradation assay (Jurkat-IKZF2-HiBiT)). Conditions: read-out: IKZF2 degradation DC50; Jurkat-IKZF2-HiBiT cells, 24 hours.
T1 construct: host or cells: Jurkat-IKZF2-HiBiT
T1 sequence (Q9UKS7 whole entry): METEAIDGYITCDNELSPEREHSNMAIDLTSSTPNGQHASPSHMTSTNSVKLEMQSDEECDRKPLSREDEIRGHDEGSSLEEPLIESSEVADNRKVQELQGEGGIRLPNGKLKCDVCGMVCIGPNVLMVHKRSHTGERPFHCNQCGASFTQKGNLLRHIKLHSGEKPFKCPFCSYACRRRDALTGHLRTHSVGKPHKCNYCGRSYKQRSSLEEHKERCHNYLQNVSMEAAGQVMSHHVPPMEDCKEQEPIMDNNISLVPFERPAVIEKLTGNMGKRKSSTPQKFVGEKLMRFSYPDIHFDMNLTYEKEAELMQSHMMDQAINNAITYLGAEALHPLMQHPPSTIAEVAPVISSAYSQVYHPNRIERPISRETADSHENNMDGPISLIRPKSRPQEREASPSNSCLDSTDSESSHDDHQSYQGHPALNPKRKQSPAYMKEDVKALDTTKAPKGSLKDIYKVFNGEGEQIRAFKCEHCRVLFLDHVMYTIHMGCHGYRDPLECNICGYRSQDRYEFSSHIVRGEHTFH
T1 sequence (Q96SW2 whole entry): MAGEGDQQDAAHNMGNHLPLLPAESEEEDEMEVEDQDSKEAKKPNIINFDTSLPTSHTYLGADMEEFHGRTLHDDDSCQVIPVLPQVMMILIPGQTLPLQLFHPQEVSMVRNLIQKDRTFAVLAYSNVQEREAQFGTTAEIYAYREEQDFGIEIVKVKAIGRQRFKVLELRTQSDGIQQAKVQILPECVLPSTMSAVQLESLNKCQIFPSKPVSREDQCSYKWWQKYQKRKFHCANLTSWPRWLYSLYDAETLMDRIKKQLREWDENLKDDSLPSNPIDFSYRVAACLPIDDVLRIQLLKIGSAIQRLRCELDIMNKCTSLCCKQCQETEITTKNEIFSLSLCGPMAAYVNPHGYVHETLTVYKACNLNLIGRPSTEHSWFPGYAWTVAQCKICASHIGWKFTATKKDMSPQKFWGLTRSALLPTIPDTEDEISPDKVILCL
T1 sequence (Q16531 2-1140 partner limits assumed): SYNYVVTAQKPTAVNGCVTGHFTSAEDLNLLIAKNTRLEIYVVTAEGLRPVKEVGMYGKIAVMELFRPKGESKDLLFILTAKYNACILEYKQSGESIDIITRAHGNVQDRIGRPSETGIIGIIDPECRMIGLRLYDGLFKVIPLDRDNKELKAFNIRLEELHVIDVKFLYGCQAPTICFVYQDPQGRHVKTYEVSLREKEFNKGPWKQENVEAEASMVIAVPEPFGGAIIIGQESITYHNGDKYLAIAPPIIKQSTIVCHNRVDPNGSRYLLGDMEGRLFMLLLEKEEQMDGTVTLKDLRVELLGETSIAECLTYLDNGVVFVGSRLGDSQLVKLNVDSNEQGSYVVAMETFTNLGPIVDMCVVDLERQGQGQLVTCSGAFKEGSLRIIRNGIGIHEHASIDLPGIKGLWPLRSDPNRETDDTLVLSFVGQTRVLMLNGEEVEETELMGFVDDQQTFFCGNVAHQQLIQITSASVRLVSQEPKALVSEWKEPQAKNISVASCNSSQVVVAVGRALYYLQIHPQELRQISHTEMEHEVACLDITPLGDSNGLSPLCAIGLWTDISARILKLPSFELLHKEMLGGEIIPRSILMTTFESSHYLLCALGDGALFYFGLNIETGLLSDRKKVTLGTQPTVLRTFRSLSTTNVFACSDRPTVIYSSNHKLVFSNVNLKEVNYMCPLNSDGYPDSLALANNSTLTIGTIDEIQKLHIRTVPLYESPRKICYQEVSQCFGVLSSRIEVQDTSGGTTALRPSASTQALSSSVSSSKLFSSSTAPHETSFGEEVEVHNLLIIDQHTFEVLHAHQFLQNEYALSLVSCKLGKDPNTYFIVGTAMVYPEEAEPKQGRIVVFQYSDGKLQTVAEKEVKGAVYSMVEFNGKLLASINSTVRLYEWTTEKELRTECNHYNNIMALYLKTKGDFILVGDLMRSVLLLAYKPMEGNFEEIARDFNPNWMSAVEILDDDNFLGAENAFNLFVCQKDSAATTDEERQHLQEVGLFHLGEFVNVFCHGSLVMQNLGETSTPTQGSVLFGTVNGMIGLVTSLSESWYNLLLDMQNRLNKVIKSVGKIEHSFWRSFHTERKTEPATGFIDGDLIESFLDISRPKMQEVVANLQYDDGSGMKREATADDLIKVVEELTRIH
Format: cell-based
Description: Degradation of IKZF2 protein was determined by IKZF2 HiBiT assay using the Jurkat-IKZF2-HiBiT (Promega) cell line. […] Compounds were serially diluted in culture medium, and 20 μl of the diluted compounds were added to the appropriate wells of the plate. After the addition of compounds, the cells were incubated at 37° C. in an atmosphere of 5% CO2 for 24 hours. At the end of treatment, 40 ul of Nano-Glo HiBiT Lytic Detection Reagent (Promega) was added to each well, and then the plates were incubated at room temperature for 10-20 minutes. The luminescent signal was measured using a CALRIOstar plate reader (BMG Labtech). The readings were normalized to the DMSO-treated cells and the IC50 was calculated by nonlinear regression (four parameters sigmoid fitted with variable slope, least squares fit, and no constraint) analysis using the GraphPad Prism 8 software.
O=C1CCC(N2Cc3cc4c(cc3C2=O)OC[C@@H]2CN(Cc3ccc(F)cc3)CCN42)C(=O)N1 (stereo partly drawn) [Compound C19, 3-((S)-3-(4-fluorobenzyl)-8-oxo-1,2,3,4,4a,5,8,10-octahydro-9H-pyrazino[1′,2′:4,5][1,4]oxazino[2,3-f]isoindol-9-yl)piperidine-2,6-dione] showed a DC50 greater than 2000 nM.

Same assay, conditions: read-out: IKZF2 degradation Dmax (%)
With O=C1CCC(N2Cc3cc4c(cc3C2=O)OC[C@@H]2CN(Cc3ccc(F)cc3)CCN42)C(=O)N1 (stereo partly drawn) [Compound C19, 3-((S)-3-(4-fluorobenzyl)-8-oxo-1,2,3,4,4a,5,8,10-octahydro-9H-pyrazino[1′,2′:4,5][1,4]oxazino[2,3-f]isoindol-9-yl)piperidine-2,6-dione] the Dmax was 0%.

The molecules below were run against CRBN/DDB1 (Homo sapiens, UniProt Q96SW2) (assay: biochemical). Conditions: not given.
CRBN/DDB1, sequence (Q96SW2 whole entry): as the sequence (Q96SW2 whole entry) above
CRBN/DDB1, sequence (Q16531 whole entry, further chain): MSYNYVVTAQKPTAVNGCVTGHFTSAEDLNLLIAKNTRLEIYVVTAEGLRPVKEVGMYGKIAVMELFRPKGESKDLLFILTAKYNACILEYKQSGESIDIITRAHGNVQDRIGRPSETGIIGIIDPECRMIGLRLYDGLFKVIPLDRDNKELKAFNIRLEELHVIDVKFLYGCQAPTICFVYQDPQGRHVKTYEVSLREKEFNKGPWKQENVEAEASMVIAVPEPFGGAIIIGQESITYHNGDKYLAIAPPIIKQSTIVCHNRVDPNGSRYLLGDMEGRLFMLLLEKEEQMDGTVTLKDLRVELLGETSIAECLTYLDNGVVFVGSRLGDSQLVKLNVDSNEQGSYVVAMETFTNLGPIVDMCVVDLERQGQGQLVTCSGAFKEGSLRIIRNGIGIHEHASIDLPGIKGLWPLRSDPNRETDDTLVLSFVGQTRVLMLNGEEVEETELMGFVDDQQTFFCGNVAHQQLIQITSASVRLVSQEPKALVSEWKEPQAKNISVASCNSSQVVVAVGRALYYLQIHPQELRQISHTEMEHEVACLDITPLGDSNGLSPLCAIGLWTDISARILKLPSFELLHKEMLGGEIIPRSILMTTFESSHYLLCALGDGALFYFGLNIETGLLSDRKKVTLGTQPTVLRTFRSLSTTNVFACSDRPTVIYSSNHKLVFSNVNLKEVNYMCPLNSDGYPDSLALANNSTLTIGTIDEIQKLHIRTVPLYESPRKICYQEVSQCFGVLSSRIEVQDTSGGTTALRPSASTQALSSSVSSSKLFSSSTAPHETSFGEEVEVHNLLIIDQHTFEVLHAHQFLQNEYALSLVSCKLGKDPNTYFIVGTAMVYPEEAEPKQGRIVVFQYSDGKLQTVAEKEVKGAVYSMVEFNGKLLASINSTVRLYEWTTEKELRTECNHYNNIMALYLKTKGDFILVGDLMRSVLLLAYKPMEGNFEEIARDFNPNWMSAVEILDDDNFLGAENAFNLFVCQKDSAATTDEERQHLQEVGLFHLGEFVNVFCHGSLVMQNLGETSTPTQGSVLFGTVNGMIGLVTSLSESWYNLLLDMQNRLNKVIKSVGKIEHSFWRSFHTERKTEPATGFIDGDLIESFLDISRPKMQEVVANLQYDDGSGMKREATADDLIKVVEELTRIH
O=C1CC[C@H](NC(=O)c2cc3c(cc2F)N2CCNC[C@H]2CO3)C(=O)N1 [Compound A1, (S)—N—((S)-2,6-dioxopiperidin-3-yl)-9-fluoro-1,2,3,4,4a,5-hexahydrobenzo[b]pyrazino[1,2-d][1,4]oxazine-8-carboxamide hydrochloride] was tested, and the IC50 was 21800 nM.

Each molecule was assayed against ER (Homo sapiens, UniProt P03372) (assay: ER degradation by in-cell western (ICW), MCF7 cells). Conditions: MCF7, read-out: MCF7 Dmax (%).
ER, sequence (P03372 whole entry): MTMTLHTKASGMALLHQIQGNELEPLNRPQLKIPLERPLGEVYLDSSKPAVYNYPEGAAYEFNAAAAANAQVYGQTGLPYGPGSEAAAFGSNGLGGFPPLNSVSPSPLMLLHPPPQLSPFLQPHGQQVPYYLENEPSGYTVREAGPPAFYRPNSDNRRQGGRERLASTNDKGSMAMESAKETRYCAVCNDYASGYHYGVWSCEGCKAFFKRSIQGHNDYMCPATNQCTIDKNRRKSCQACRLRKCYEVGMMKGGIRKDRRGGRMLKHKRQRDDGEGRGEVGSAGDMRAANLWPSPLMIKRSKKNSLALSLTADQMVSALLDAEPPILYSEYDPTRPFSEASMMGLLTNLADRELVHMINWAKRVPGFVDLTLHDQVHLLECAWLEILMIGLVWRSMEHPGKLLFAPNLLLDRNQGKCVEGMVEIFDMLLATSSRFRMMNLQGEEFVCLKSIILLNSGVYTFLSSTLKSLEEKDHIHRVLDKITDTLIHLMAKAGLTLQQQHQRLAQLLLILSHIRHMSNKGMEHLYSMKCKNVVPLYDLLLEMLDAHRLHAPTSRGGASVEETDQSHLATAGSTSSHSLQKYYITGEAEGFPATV
Format: cell-based
Parameters: endogenous in cells; host or cells: MCF-7
Description: ERa degradative activity of compounds can be assessed in MCF-7 and T47D Cells. MCF-7 and T47D cell are seeded and are subsequently treated with the compounds at certain concentrations (e.g., 0.02 to 300 nM). DMSO can be used as vehicle control. Cells are fixed and are blocked with Intercept (PBS) Blocking Buffer (e.g., Li—COR, Odyssey Blocking Buffer), and are stained with ER (e.g., 1:500, Cell signaling) primary antibody for overnight at cold room. Secondary Antibody (e.g., IRDye 800CW Goat anti-Rabbit IgG) and CellTag 700 Stain are added in Intercept (PBS) Blocking Buffer. Finally, cell plate is placed in incubator to dry. Image and signal were captured on Odyssey@DLx Imaging System.
In-cell western blot analysis. Cells are seeded in multi-well plates (e.g., at 40,000 or 10,000 cells/well). Diluted compounds at certain concentration are added (final 0.5% DMSO) and cells are incubated for certain period of time (e.g., 16 hours). Formaldehyde (e.g., PBS:FA=9:1) is added and followed by washing with PBS. The cells are blocked with Licor blocking buffer (Li-Cor). The relative ER percentage in treated cells were obtained by comparing the values of treated wells to those in untreated and DMSO-treated wells as 100%.
In-cell western blot analysis. a. seed cells in black-sided/clear bottom 96- or 384-well plates at 40,000 or 10,000 cells/well, overnight; b. add diluted compounds (final 0.5% DMSO), 16 hours. […] RT 2 h, gentle shaking. Negative control: cells plus secondary antibodies (no primary antibodies); e. wash×4 with PBS +0.05-0.1% Tween 20, gentel shaking; f. anti-rabbit-680 and anti-mouse-800 (both 1:1000 in LiCor block +0.05% Tween20, RT 1 h, gentle shaking, no light. LI-COR: 0.2% to reduce background; g. wash×4 with PBS+0.05% Tween 20, gental shaking; h. add 100 μL or 25 μL of PBS to each well and read on CLX plate reader. The relative ER percentage in treated cells were obtained by comparing the values of treated wells to those in untreated and DMSO-treated wells as 100%.
O=C1CC[C@H](N2Cc3cc4c(cc3C2=O)OC[C@@H]2CN(CC3CC5(CCN(c6ccc([C@@H]7c8ccc(O)cc8OC[C@@H]7c7ccccc7)cc6)CC5)C3)CCN42)C(=O)N1 [CHR-A59, (S)-3-((S)-3-((7-(4-((3S,4R)-7-hydroxy-3-phenylchroman-4-yl)phenyl)-7-azaspiro[3.5]nonan-2-yl)methyl)-8-oxo-1,2,3,4,4a,5,8,10-octahydro-9H-pyrazino[1′,2′:4,5][1,4]oxazino[2,3-f]isoindol-9-yl)piperidine-2,6-dione] gave a Dmax of 50 to 75%.

Same assay, conditions: MCF7 cells, ER in-cell western, 16 hours
For O=C1CC[C@H](N2Cc3cc4c(cc3C2=O)OC[C@@H]2CN(CC3CC5(CCN(c6ccc([C@@H]7c8ccc(O)cc8OC[C@@H]7c7ccccc7)cc6)CC5)C3)CCN42)C(=O)N1 [CHR-A59, (S)-3-((S)-3-((7-(4-((3S,4R)-7-hydroxy-3-phenylchroman-4-yl)phenyl)-7-azaspiro[3.5]nonan-2-yl)methyl)-8-oxo-1,2,3,4,4a,5,8,10-octahydro-9H-pyrazino[1′,2′:4,5][1,4]oxazino[2,3-f]isoindol-9-yl)piperidine-2,6-dione], the DC50 was 1 to 10 nM.
O=C1CC[C@@H](N2Cc3cc4c(cc3C2=O)OC[C@H]2CN(CC3CCC5(CC3)CN(c3ccc([C@H]6c7ccc(O)cc7OC[C@H]6c6ccccc6)cc3)C5)CCN42)C(=O)N1 [CHR-A118, (R)-3-((R)-3-((2-(4-((3R,4S)-7-hydroxy-3-phenylchroman-4-yl)phenyl)-2-azaspiro[3.5]nonan-7-yl)methyl)-8-oxo-1,2,3,4,4a,5,8,10-octahydro-9H-pyrazino[1′,2′:4,5][1,4]oxazino[2,3-f]isoindol-9-yl)piperidine-2,6-dione] was tested, and the DC50 was 1 to 10 nM.

The molecules below were run against wild-type human CRBN protein (Homo sapiens, UniProt Q96SW2) (assay: biochemical). Conditions: not given.
wild-type human CRBN protein, sequence (Q96SW2 whole entry): as the sequence (Q96SW2 whole entry) above
In the case of CN1C[C@@H]2CNCCN2c2cc3c(cc21)C(=O)N(C1CCC(=O)NC1=O)C3 (stereo partly drawn) [Compound B7, 3-((S)-6-methyl-8-oxo-2,3,4,4a,5,6,8,10-octahydropyrazino[1,2-a]pyrrolo[3,4-g]quinoxalin-9(1H)-yl)piperidine-2,6-dione trifluoroacetate salt], the IC50 is reported as 740 nM.
CN1CCN2c3cc4c(cc3N(C)C[C@@H]2C1)C(=O)N(C1CCC(=O)NC1=O)C4 (stereo partly drawn) [Compound B8, 3-((S)-3,6-dimethyl-8-oxo-2,3,4,4a,5,6,8,10-octahydropyrazino[1,2-a]pyrrolo[3,4-g]quinoxalin-9(1H)-yl)piperidine-2,6-dione] was tested, and the IC50 was 940 nM.
CN1CCN2c3cc4c(cc3NC(=O)[C@@H]2C1)C(=O)N(C1CCC(=O)NC1=O)C4 (stereo partly drawn) [Compound B10, (4aS)-9-(2,6-dioxopiperidin-3-yl)-3-methyl-2,3,4,4a,9,10-hexahydropyrazino[1,2-a]pyrrolo[3,4-g]quinoxaline-5,8(1H,6H)-dione] was tested, and the IC50 was 600 nM.
CN1CCN2c3ccc4c(c3N(C)C[C@@H]2C1)CN(C1CCC(=O)NC1=O)C4=O (stereo partly drawn) [Compound B12, 3-((S)-4,7-dimethyl-1-oxo-3,4,5,5a,6,7,8,9-octahydropyrazino[1,2-a]pyrrolo[3,4-f]quinoxalin-2(1H)-yl)piperidine-2,6-dione] was tested, and the IC50 was 580 nM.
N[C@H]1C[C@H]2COc3cc4c(cc3N2C1)CN([C@H]1CCC(=O)NC1=O)C4=O [Compound B17, (S)-3-((2S,3aS)-2-amino-7-oxo-2,3,3a,4,7,9-hexahydro-1H,8H-pyrrolo[1′,2′:4,5][1,4]oxazino[2,3-f]isoindol-8-yl)piperidine-2,6-dione] was tested, and the IC50 was 130 nM.
N[C@H]1C[C@H]2COc3cc4c(cc3N2C1)C(=O)N(C1CCC(=O)NC1=O)C4=O (stereo partly shown) [Compound B18] was tested, and the IC50 was 220 nM.
O=C1CC[C@H](NC(=O)c2ccc3c(n2)OC[C@H]2CNCCN32)C(=O)N1 [Compound B19, (R)-N-((S)-2,6-dioxopiperidin-3-yl)-1,2,3,4,4a,5-hexahydropyrazino[1,2-d]pyrido [2,3-b][1,4]oxazine-8-carboxamide] showed an IC50 of 30200 nM.
Work on CN(C(=O)c1ccc2c(n1)OC[C@H]1CNCCN21)C1CCC(=O)NC1=O (stereo partly drawn) [Compound B20, (4aR)-N-(2,6-dioxopiperidin-3-yl)-N-methyl-1,2,3,4,4a,5-hexahydropyrazino[1,2-d]pyrido[2,3-b][1,4]oxazine-8-carboxamide] yielded an IC50 of 17500 nM.
For CN(C(=O)c1ccc2c(c1)OC[C@H]1CNCCN21)C1CCC(=O)NC1=O (stereo partly drawn) [Compound B21, (4aR)—N-(2,6-dioxopiperidin-3-yl)-N-methyl-1,2,3,4,4a,5-hexahydrobenzo[b]pyrazino[1,2-d][1,4]oxazine-8-carboxamide], the IC50 was 4600 nM.
Molecule O=C1CC[C@H](NC(=O)c2ccc3c(c2)OC[C@H]2CNCCN32)C(=O)N1 [Compound B22, (R)—N—((S)-2,6-dioxopiperidin-3-yl)-1,2,3,4,4a,5-hexahydrobenzo[b]pyrazino[1,2-d][1,4]oxazine-8-carboxamide] has an IC50 of 23000 nM.
Work on O=C1CC[C@H](NC(=O)c2ccc3c(c2)OC[C@@H]2CNCCN32)C(=O)N1 [Compound B23, (S)—N—((S)-2,6-dioxopiperidin-3-yl)-1,2,3,4,4a,5-hexahydrobenzo[b]pyrazino[1,2-d][1,4]oxazine-8-carboxamide] yielded an IC50 of 25000 nM.
With CN(C(=O)c1ccc2c(c1)OC[C@@H]1CNCCN21)C1CCC(=O)NC1=O (stereo partly drawn) [Compound B24, (4aS)—N-(2,6-dioxopiperidin-3-yl)-N-methyl-1,2,3,4,4a,5-hexahydrobenzo[b]pyrazino[1,2-d][1,4]oxazine-8-carboxamide] the IC50 was 3400 nM.
CCN1CCN2c3ccc4c(c3OC[C@H]2C1)CN([C@H]1CCC(=O)NC1=O)C4=O [Compound C8, (S)-3-((R)-7-ethyl-1-oxo-1,3,5,5a,6,7,8,9-octahydro-2H-pyrazino[1′,2′:4,5][1,4]oxazino[2,3-e]isoindol-2-yl)piperidine-2,6-dione] gave an IC50 of 470 nM.
Work on CC(=O)N1CCN2c3ccc4c(c3OC[C@H]2C1)CN([C@H]1CCC(=O)NC1=O)C4=O [Compound C9, (S)-3-((R)-7-acetyl-1-oxo-1,3,5,5a,6,7,8,9-octahydro-2H-pyrazino[1′,2′:4,5][1,4]oxazino[2,3-e]isoindol-2-yl)piperidine-2,6-dione] yielded an IC50 of 180 nM.
In the case of CC(=O)N1CCN2c3ccc4c(c3OC[C@@H]2C1)CN([C@H]1CCC(=O)NC1=O)C4=O [Compound C10, (S)-3-((S)-7-acetyl-1-oxo-1,3,5,5a,6,7,8,9-octahydro-2H-pyrazino[1′,2′:4,5][1,4]oxazino[2,3-e]isoindol-2-yl)piperidine-2,6-dione], the IC50 is reported as 200 nM.
O=C1CC[C@H](N2Cc3c(ccc4c3OC[C@@H]3CN(Cc5ccc(C(F)F)cc5)CCN43)C2=O)C(=O)N1 [Compound C11, (S)-3-((S)-7-(4-(difluoromethyl)benzyl)-1-oxo-1,3,5,5a,6,7,8,9-octahydro-2H-pyrazino[1′,2′:4,5][1,4]oxazino[2,3-e]isoindol-2-yl)piperidine-2,6-dione] gave an IC50 of 90 nM.
Molecule O=C1CC[C@H](N2Cc3c(ccc4c3OC[C@@H]3CN(Cc5ccc(F)c(F)c5)CCN43)C2=O)C(=O)N1 [Compound C12, (S)-3-((S)-7-(3,4-difluorobenzyl)-1-oxo-1,3,5,5a,6,7,8,9-octahydro-2H-pyrazino[1′,2′:4,5][1,4]oxazino[2,3-e]isoindol-2-yl)piperidine-2,6-dione] has an IC50 of 240 nM.
Molecule O=C1CC[C@H](N2Cc3c(ccc4c3OC[C@@H]3CN(Cc5ccc(F)cc5Cl)CCN43)C2=O)C(=O)N1 [Compound C13, (S)-3-((S)-7-(2-chloro-4-fluorobenzyl)-1-oxo-1,3,5,5a,6,7,8,9-octahydro-2H-pyrazino[1′,2′:4,5][1,4]oxazino[2,3-e]isoindol-2-yl)piperidine-2,6-dione] has an IC50 of 90 nM.
Work on O=C1CCC(N2Cc3cc4c(cc3C2=O)OC[C@@H]2CN(Cc3ccc(F)cc3)CCN42)C(=O)N1 (stereo partly drawn) [Compound C19, 3-((S)-3-(4-fluorobenzyl)-8-oxo-1,2,3,4,4a,5,8,10-octahydro-9H-pyrazino[1′,2′:4,5][1,4]oxazino[2,3-f]isoindol-9-yl)piperidine-2,6-dione] yielded an IC50 of 330 nM.
